Measured values: patent US20230024442A1, “BIFUNCTIONAL COMPOUNDS FOR GRADING BTK VIA UBIQUITIN PROTEOSOME PATHWAY” (NURIX THERAPEUTICS, INC., priority 2019, published 2023)

What follows are compounds tested against T1, BTK (Homo sapiens, UniProt Q06187) (assay: Cellular BTK HTRF Assay (BTK levels in Ramos cells)). Details: Ramos cells, 50,000 cells, incubated four hours at 37° C.; BTK levels by Cisbio Total-BTK HTRF relative to DMSO-treated cells.
T1 construct: endogenous in cells; host or cells: Ramos (ATCC CRL-1596)
T1 sequence (Q06187 whole entry): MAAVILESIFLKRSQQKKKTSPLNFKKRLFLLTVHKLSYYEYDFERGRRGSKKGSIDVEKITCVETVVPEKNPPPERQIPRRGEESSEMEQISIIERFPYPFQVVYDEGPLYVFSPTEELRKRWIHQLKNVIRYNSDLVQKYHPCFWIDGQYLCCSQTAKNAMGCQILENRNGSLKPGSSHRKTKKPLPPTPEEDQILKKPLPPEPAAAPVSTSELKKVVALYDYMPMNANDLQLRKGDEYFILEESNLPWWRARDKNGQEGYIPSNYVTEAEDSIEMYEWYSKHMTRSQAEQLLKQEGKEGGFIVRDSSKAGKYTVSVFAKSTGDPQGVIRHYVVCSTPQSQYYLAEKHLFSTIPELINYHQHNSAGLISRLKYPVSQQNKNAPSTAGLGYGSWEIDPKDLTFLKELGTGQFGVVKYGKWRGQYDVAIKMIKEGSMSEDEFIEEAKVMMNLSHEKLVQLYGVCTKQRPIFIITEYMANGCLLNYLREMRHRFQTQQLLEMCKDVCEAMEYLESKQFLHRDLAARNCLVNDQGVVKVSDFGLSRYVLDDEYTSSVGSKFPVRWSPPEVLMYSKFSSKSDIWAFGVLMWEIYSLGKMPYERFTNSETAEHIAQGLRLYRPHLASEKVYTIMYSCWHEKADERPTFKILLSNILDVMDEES
Assay type: cell-based
Protocol: Ramos (CRL-1596) cells were obtained from American Type Culture Collection and were grown in RPMI-1640 media (ATCC, 30-2001) supplemented with 10% heat-inactivated FBS (Corning Premium Fetal Bovine Serum from Fisher, MT35015CV).
Compounds of the present invention were added to 50,000 Ramos cells in round-bottom 96 well plates with a final DMSO concentration of […] and were incubated at 37° C. 5% CO2 for four hours. BTK levels were determined using Cisbio Total-BTK HTRF ([…] Time-Resolved Fluorescence) kit (63ADK064PEG) according to manufacturer's protocol. Briefly, cells were incubated in 1× supplied lysis buffer for 30 minutes. In an opaque white low volume 96 well plate (Cisbio, 66PL96005), cell lysate was combined with two different specific BTK antibodies, one conjugated with Eu^3+-Cryptate FRET donor and one conjugated with d2 FRET acceptor. Assay controls include wells containing cell lysate with only the Eu^3+-Cryptate FRET donor antibody and wells containing both HTRF antibodies and lysis buffer without cells or control lysate provided by Cisbio. HTRF ratio was calculated as (acceptor signal at 665 nm/donor signal at 620 nm)×10^4. Background HTRF levels were determined from the control well containing the donor, but no acceptor, antibody. Background HTRF levels were subtracted from all samples. Readouts were reported as HTRF levels relative to HTRF levels of DMSO-treated cells. Four-parameter non-linear regressions were performed in GraphPad Prism 7.02 to obtain DC50 values. DC50 values are provided in Table 7, wherein A<1 nM, 1 nM≤B≤10 nM, and 10 nM<C<1 μM.
In the case of `C[C@H]1CN(C(=O)[C@H]2CC[C@H](Nc3cccc4c3C(=O)N(C3CCC(=O)NC3=O)C4=O)CC2)CCN1c1ccc(Nc2cc(-c3ccnc(N4CCn5c(cc6c5CC(C)(C)C6)C4=O)c3CO)cn(C)c2=O)nc1` (stereo partly shown) [Compound 31], the DC50 is reported as 1 to 10 nM.
For `C[C@H]1CN(C(=O)CN2CCN(CCCc3cccc4c3C(=O)N(C3CCC(=O)NC3=O)C4=O)CC2)CCN1c1ccc(Nc2cc(-c3ccnc(N4CCn5c(cc6c5CC(C)(C)C6)C4=O)c3CO)cn(C)c2=O)nc1` (stereo partly shown) [Compound 32], the DC50 was 1 to 10 nM.
`C[C@H]1CN(C(=O)CCCc2cccc3c2CN(C2CCC(=O)NC2=O)C3=O)CCN1c1ccc(Nc2cc(-c3ccnc(N4CCn5c(cc6c5CC(C)(C)C6)C4=O)c3CO)cn(C)c2=O)nc1` (stereo partly shown) [Compound 33] showed a DC50 of 1 to 10 nM.
Work on `C[C@H]1CN(C(=O)C2CC3(CC(Nc4cccc5c4C(=O)N(C4CCC(=O)NC4=O)C5=O)C3)C2)CCN1c1ccc(Nc2cc(-c3ccnc(N4CCn5c(cc6c5CC(C)(C)C6)C4=O)c3CO)cn(C)c2=O)nc1` (stereo partly shown) [Compound 34] yielded a DC50 of 1 to 10 nM.
`C[C@H]1CN(C(=O)CNc2cccc3c2C(=O)N(C2CCC(=O)NC2=O)C3=O)CCN1c1ccc(Nc2cc(-c3ccnc(N4CCn5c(cc6c5CC(C)(C)C6)C4=O)c3CO)cn(C)c2=O)nc1` (stereo partly shown) [Compound 35] was tested, and the DC50 was 1 to 10 nM.
`C[C@H]1CN(C(=O)CCNc2cccc3c2C(=O)N(C2CCC(=O)NC2=O)C3=O)CCN1c1ccc(Nc2cc(-c3ccnc(N4CCn5c(cc6c5CC(C)(C)C6)C4=O)c3CO)cn(C)c2=O)nc1` (stereo partly shown) [Compound 36] gave a DC50 of 10 to 1000 nM.
In the case of `C[C@H]1CN(C(=O)CCCNc2cccc3c2C(=O)N(C2CCC(=O)NC2=O)C3=O)CCN1c1ccc(Nc2cc(-c3ccnc(N4CCn5c(cc6c5CC(C)(C)C6)C4=O)c3CO)cn(C)c2=O)nc1` (stereo partly shown) [Compound 37], the DC50 is reported as 1 to 10 nM.
`C[C@H]1CN(C(=O)CCCCc2cccc3c2CN(C2CCC(=O)NC2=O)C3=O)CCN1c1ccc(Nc2cc(-c3ccnc(N4CCn5c(cc6c5CC(C)(C)C6)C4=O)c3CO)cn(C)c2=O)nc1` (stereo partly shown) [Compound 38] showed a DC50 of 1 to 10 nM.
For `C[C@H]1CN(CCOCCOCCOCCOCCOCCNc2cccc3c2C(=O)N(C2CCC(=O)NC2=O)C3=O)CCN1c1ccc(Nc2cc(-c3ccnc(N4CCn5c(cc6c5CC(C)(C)C6)C4=O)c3CO)cn(C)c2=O)nc1` (stereo partly shown) [Compound 39], the DC50 was 1 to 10 nM.
Compound `C[C@@H]1CN(CCOCCNc2cccc3c2C(=O)N(C2CCC(=O)NC2=O)C3=O)CCN1c1ccc(Nc2cc(-c3ccnc(N4CCn5c(cc6c5CC(C)(C)C6)C4=O)c3CO)cn(C)c2=O)nc1` (stereo partly shown) [Compound 40] has a DC50 of under 1 nM.
Compound `C[C@@H]1CN(CCOCCOCCOCCNc2cccc3c2C(=O)N(C2CCC(=O)NC2=O)C3=O)CCN1c1ccc(Nc2cc(-c3ccnc(N4CCn5c(cc6c5CC(C)(C)C6)C4=O)c3CO)cn(C)c2=O)nc1` (stereo partly shown) [Compound 41] has a DC50 of 1 to 10 nM.
`C[C@H]1CN(C(=O)CCOCCN2CCN(CCOCCOCCNc3cccc4c3C(=O)N(C3CCC(=O)NC3=O)C4=O)CC2)CCN1c1ccc(Nc2cc(-c3ccnc(N4CCn5c(cc6c5CC(C)(C)C6)C4=O)c3CO)cn(C)c2=O)nc1` (stereo partly shown) [Compound 42] showed a DC50 of 10 to 1000 nM.
For `C[C@H]1CN(C(=O)CCOCCCc2cccc3c2CN(C2CCC(=O)NC2=O)C3=O)CCN1c1ccc(Nc2cc(-c3ccnc(N4CCn5c(cc6c5CC(C)(C)C6)C4=O)c3CO)cn(C)c2=O)nc1` (stereo partly shown) [Compound 43], the DC50 was 1 to 10 nM.
In the case of `C[C@@H]1CN(C(=O)N(C)CCOCCOCCOCCOCCCc2cccc3c2CN(C2CCC(=O)NC2=O)C3=O)CCN1c1ccc(Nc2cc(-c3ccnc(N4CCn5c(cc6c5CC(C)(C)C6)C4=O)c3CO)cn(C)c2=O)nc1` (stereo partly shown) [Compound 44], the DC50 is reported as 1 to 10 nM.
For `C[C@H]1CN(C(=O)N(C)CCOCCOCCOCCOCCOCCCc2cccc3c2CN(C2CCC(=O)NC2=O)C3=O)CCN1c1ccc(Nc2cc(-c3ccnc(N4CCn5c(cc6c5CC(C)(C)C6)C4=O)c3CO)cn(C)c2=O)nc1` (stereo partly shown) [Compound 45], the DC50 was 1 to 10 nM.
`C[C@@H]1CN(C(=O)NCCCCCc2cccc3c2CN(C2CCC(=O)NC2=O)C3=O)CCN1c1ccc(Nc2cc(-c3ccnc(N4CCn5c(cc6c5CC(C)(C)C6)C4=O)c3CO)cn(C)c2=O)nc1` (stereo partly shown) [Compound 46] was tested, and the DC50 was 1 to 10 nM.
Compound `C[C@H]1CN(C(=O)NCCOCCOCCOCCCc2cccc3c2CN(C2CCC(=O)NC2=O)C3=O)CCN1c1ccc(Nc2cc(-c3ccnc(N4CCn5c(cc6c5CC(C)(C)C6)C4=O)c3CO)cn(C)c2=O)nc1` (stereo partly shown) [Compound 47] has a DC50 of 1 to 10 nM.
`C[C@@H]1CN(C(=O)NCCCCCCOCCCc2cccc3c2CN(C2CCC(=O)NC2=O)C3=O)CCN1c1ccc(Nc2cc(-c3ccnc(N4CCn5c(cc6c5CC(C)(C)C6)C4=O)c3CO)cn(C)c2=O)nc1` (stereo partly shown) [Compound 48] showed a DC50 of 1 to 10 nM.
With `C[C@H]1CN(C(=O)CCOCCOCCOCCCc2cccc3c2CN(C2CCC(=O)NC2=O)C3=O)CCN1c1ccc(Nc2cc(-c3ccnc(N4CCn5c(cc6c5CC(C)(C)C6)C4=O)c3CO)cn(C)c2=O)nc1` (stereo partly shown) [Compound 49] the DC50 was 1 to 10 nM.
With `C[C@@H]1CN(C(=O)CCOCCOCCOCCOCCOCCNc2cccc3c2C(=O)N(C2CCC(=O)NC2=O)C3=O)CCN1c1ccc(Nc2cc(-c3ccnc(N4CCn5c(cc6c5CC(C)(C)C6)C4=O)c3CO)cn(C)c2=O)nc1` (stereo partly shown) [Compound 50] the DC50 was 1 to 10 nM.
`C[C@H]1CN(C(=O)CCOCCOCCOCCOCCNc2cccc3c2C(=O)N(C2CCC(=O)NC2=O)C3=O)CCN1c1ccc(Nc2cc(-c3ccnc(N4CCn5c(cc6c5CC(C)(C)C6)C4=O)c3CO)cn(C)c2=O)nc1` (stereo partly shown) [Compound 51] was tested, and the DC50 was 1 to 10 nM.
`C[C@H]1CN(C(=O)CCOCCOCCOCCNc2cccc3c2C(=O)N(C2CCC(=O)NC2=O)C3=O)CCN1c1ccc(Nc2cc(-c3ccnc(N4CCn5c(cc6c5CC(C)(C)C6)C4=O)c3CO)cn(C)c2=O)nc1` (stereo partly shown) [Compound 52] showed a DC50 of 1 to 10 nM.
Work on `C[C@H]1CN(C(=O)CCOCCOCCOCCOCCOCCCc2cccc3c2CN(C2CCC(=O)NC2=O)C3=O)CCN1c1ccc(Nc2cc(-c3ccnc(N4CCn5c(cc6c5CC(C)(C)C6)C4=O)c3CO)cn(C)c2=O)nc1` (stereo partly shown) [Compound 53] yielded a DC50 of under 1 nM.
In the case of `C[C@@H]1CN(C(=O)CCOCCOCCOCCOCCCc2cccc3c2CN(C2CCC(=O)NC2=O)C3=O)CCN1c1ccc(Nc2cc(-c3ccnc(N4CCn5c(cc6c5CC(C)(C)C6)C4=O)c3CO)cn(C)c2=O)nc1` (stereo partly shown) [Compound 54], the DC50 is reported as 1 to 10 nM.
In the case of `C[C@H]1CN(C(=O)CCOCCNc2cccc3c2C(=O)N(C2CCC(=O)NC2=O)C3=O)CCN1c1ccc(Nc2cc(-c3ccnc(N4CCn5c(cc6c5CC(C)(C)C6)C4=O)c3CO)cn(C)c2=O)nc1` (stereo partly shown) [Compound 55], the DC50 is reported as 1 to 10 nM.
`C[C@@H]1CN(C(=O)CCCN2CCN(c3ccc4c(c3)C(=O)N(C3CCC(=O)NC3=O)C4=O)CC2)CCN1c1ccc(Nc2cc(-c3ccnc(N4CCn5c(cc6c5CC(C)(C)C6)C4=O)c3CO)cn(C)c2=O)nc1` (stereo partly shown) [Compound 56] showed a DC50 of 1 to 10 nM.
`C[C@H]1CN(C(=O)CCOCCC(=O)Nc2cccc3c2CN(C2CCC(=O)NC2=O)C3=O)CCN1c1ccc(Nc2cc(-c3ccnc(N4CCn5c(cc6c5CC(C)(C)C6)C4=O)c3CO)cn(C)c2=O)nc1` (stereo partly shown) [Compound 57] gave a DC50 of 1 to 10 nM.
With `C[C@H]1CN(C(=O)CCCN2CCN(c3cc4c(cc3F)C(=O)N(C3CCC(=O)NC3=O)C4=O)CC2)CCN1c1ccc(Nc2cc(-c3ccnc(N4CCn5c(cc6c5CC(C)(C)C6)C4=O)c3CO)cn(C)c2=O)nc1` (stereo partly shown) [Compound 58] the DC50 was 1 to 10 nM.
